From patent US20230357166A1, “PIPERAZINE-BASED CATIONIC LIPIDS” (TRANSLATE BIO, INC., priority 2020, published 2023)

Tested on: male CD1 mice
Assay: Delivery of Firefly Luciferase (FFL) mRNA by intratracheal administration of lipid nanoparticles
Type: in vivo
Conditions: lipid nanoparticles (Process A) with FFL mRNA, cationic lipid, DMG-PEG2000, cholesterol and DOPE (40:5:25:30 or 45:5:20:30 mol %); single intratracheal aerosol administration; IVIS imaging approximately 24 hours post-dose; FIG. 1
Method: One exemplary process for lipid nanoparticle formulation is Process A of WO 2018/089801 (see, e.g., Example 1 and FIG. 1 of WO 2018/089801). Process A (“A”) relates to a conventional method of encapsulating mRNA by mixing mRNA with a mixture of lipids, without first pre-forming the lipids into lipid nanoparticles. In an exemplary process, an ethanol lipid solution and an aqueous buffered solution of mRNA were prepared separately. A solution of mixture of lipids (cationic lipid, helper lipids, zwitterionic lipids, PEG lipids etc.) was prepared by dissolving lipids in ethanol. The mRNA solution was prepared by dissolving the mRNA in citrate buffer. Then, these two solutions were mixed using a pump system. In some instances, the two solutions were mixed using a gear pump system. In certain embodiments, the two solutions were mixing using a ‘T’ junction (or “Y” junction). The mixture was then purified by diafiltration with a TFF process. The resultant formulation concentrated and stored at 2-8° C. until further use.
Lipid nanoparticle formulations prepared using Process A comprising FFL mRNA, cationic lipid, DMG-PEG2000, cholesterol and DOPE (40:5:25:30 or 45:5:20:30 mol % ratio) were administered to male CD1 mice (6-8 weeks old) by a single intratracheal aerosol administration via a Microsprayer® (50 ul/animal) while under anesthesia. At approximately 24 hours post-dose, the animals were dosed with luciferin at 150 mg/kg (60 mg/ml) by intraperitoneal injection at 2.5 ml/kg. After 5-15 minutes, all animals were imaged using an IVIS imaging system to measure luciferase production in the lung.

SMILES	in vivo protein production (FFL protein; luciferase production in the lung)
CCCCCCCCC(O)CN(CCCC(=O)OCCN1CC(C)N(CCOC(=O)CCCN(CC(O)CCCCCCCC)CC(O)CCCCCCCC)CC1C)CC(O)CCCCCCCC (stereo not shown) [Compound A9]	high levels of in vivo protein production
CCCCCCCCCCCCC(O)CN(CCCC(=O)OCCN1CC(C)N(CCOC(=O)CCCN(CC(O)CCCCCCCCCCCC)CC(O)CCCCCCCCCCCC)CC1C)CC(O)CCCCCCCCCCCC (stereo not shown) [Compound A11]	high levels of in vivo protein production
CCCCC/C=C\C/C=C\CCCCCCC(O)CN(CCCC(=O)OCCN1CC(C)N(CCOC(=O)CCCN(CC(O)CCCCCC/C=C\C/C=C\CCCCC)CC(O)CCCCCC/C=C\C/C=C\CCCCC)CC1C)CC(O)CCCCCC/C=C\C/C=C\CCCCC (stereo not shown) [Compound A15]	high levels of in vivo protein production
CCCCCCCCC(O)CN(CCCCC(=O)OCCN1CC(C)N(CCOC(=O)CCCCN(CC(O)CCCCCCCC)CC(O)CCCCCCCC)CC1C)CC(O)CCCCCCCC (stereo not shown) [Compound A17]	high levels of in vivo protein production
CCCCCCCCCCC(O)CN(CCCCC(=O)OCCN1CC(C)N(CCOC(=O)CCCCN(CC(O)CCCCCCCCCC)CC(O)CCCCCCCCCC)CC1C)CC(O)CCCCCCCCCC (stereo not shown) [Compound A18]	high levels of in vivo protein production
CCCCCCCCCCCCC(O)CN(CCCCC(=O)OCCN1CC(C)N(CCOC(=O)CCCCN(CC(O)CCCCCCCCCCCC)CC(O)CCCCCCCCCCCC)CC1C)CC(O)CCCCCCCCCCCC (stereo not shown) [Compound A19]	high levels of in vivo protein production
CCCCCCCCC(O)CN(CCCC(=O)SCCN1CC(C)N(CCSC(=O)CCCN(CC(O)CCCCCCCC)CC(O)CCCCCCCC)CC1C)CC(O)CCCCCCCC (stereo not shown) [Compound C9]	high levels of in vivo protein production
CCCCCCCCC(O)CN(CCCCC(=O)SCCN1CC(C)N(CCSC(=O)CCCCN(CC(O)CCCCCCCC)CC(O)CCCCCCCC)CC1C)CC(O)CCCCCCCC (stereo not shown) [Compound C17]	high levels of in vivo protein production
CCCCCCCCOC(=O)CCN(CCCCC(=O)OCCN1CC(C)N(CCOC(=O)CCCCN(CCC(=O)OCCCCCCCC)CCC(=O)OCCCCCCCC)CC1C)CCC(=O)OCCCCCCCC (stereo not shown) [Compound D21]	high levels of in vivo protein production
CC(C)CCCCCCCOC(=O)CCN(CCCCC(=O)OCCN1CC(C)N(CCOC(=O)CCCCN(CCC(=O)OCCCCCCCC(C)C)CCC(=O)OCCCCCCCC(C)C)CC1C)CCC(=O)OCCCCCCCC(C)C (stereo not shown) [Compound D23]	high levels of in vivo protein production
